From US10828335B2, “Production of midbrain dopaminergic neurons and methods for the use thereof” (FUJIFILM Cellular Dynamics, Inc., priority 2014, dated 2020)

What was measured:
Format in all cases: cell-based, human
[1] = system: cells differentiated from iPS cell line MAP2 Neo #2; test: Flow cytometry of cells made with the No FGF8 protocol with drug selection (+G418) (Example 2); details: +G418, 7 days post-thaw
Experimental: (§1) On Day 19, cells were dissociated using Accutase (45 min) and were re-plated at 3.1×10^5 cells/cm^2 onto flasks pre-coated with poly-L-ornithine and laminin (PLO/laminin) in Maturation Medium containing 2.5 μM blebbistatin. Cells were fed with Maturation Medium on Days 20, 22 and 24. To compare unselected cells to those that had undergone drug selection, in some experiments a side-arm condition of cells were fed on Day 22 and 24 with Maturation Medium containing 100 μg/mL G418 to select against cells not expressing the neomycin resistance gene under the control of a pan-neuronal MAP2 promoter.
On Day 26, cells were dissociated using Accutase (45 min) and cryopreserved in CryoStor CS10 medium at 1.25×10^7 cells/mL using a controlled rate freezer.
In further studies the purity of mature midbrain DA neurons was assessed by flow cytometry of cells generated using a “no FGF8” protocol alone compared to cells obtained using a drug selection method. When the cells are cryopreserved on day 26 with no drug selection, they are 99% FoxA2^+, 40% TH^+, and 77% Map2^+. […] For comparison, cells made using the same protocol but with drug selection (+G418), the final purity at 7 days post-thaw was 96% FoxA2^+, 63% TH^+, and 98% Map2^+.

[2] = system: cells differentiated from iPS cell line MAP2 Neo #2; test: Flow cytometry of midbrain DA neuron differentiation with G418 drug selection (Example 1); details: day 38; 100 μg/mL G418 selection; same protocol without drug selection gave 39% neurons
Experimental: as §1, with “24,” for “19,”, “Day 25. On Day 27” for “Days 20, 22”, “Day 29,” for “24. To compare unselected cells to those that had undergone drug selection, in some experiments a side-arm condition of”, “fed” for “fed on Day 22 and 24”
On Day 31, cells were dissociated using Accutase (45 min) and were re-plated at 3.1×10^5 cells/cm^2 onto PLO/ laminin flasks in Maturation Medium containing 100 μg/mL G418 and 2.5 μM blebbistatin. On Day 32, Day 34 and Day 36, cells were fed with Maturation Medium. On Day 38, cells were dissociated using Accutase (45 min) and cryopreserved in CryoStor CS10 medium at 1.25×10^7 cells/mL using a controlled rate freezer.
The effect of drug selection on gene expression in cell populations was also analyzed. […] This iPS cell lines (MAP2 Neo #2 (01279.107.00402)) was generated using zinc finger nuclease-mediated homologous recombination at the AAVS1 safe harbor site, as detailed above. The midbrain DA neuron differentiation protocol performed without drug selection results in a population of cells that is 39% neurons (Map2^+/Nestin^−) on day 38. […]

MAP2 Neo #2 iPS cells = test: Midbrain specification during DA progenitor induction with a MEK inhibitor; details: 1 μM PD0325901 added from Day 2 of differentiation
Experimental: Day 1 medium was composed of DMEM/F12 with B27 Supplement and containing a cocktail of small molecule inhibitors and activators (“Induction Cocktail”): 200 nM LDN-193189, […] SB431542, 2 μM purmorphamine, 100 ng/mL Shh C25II and 1.25 μM CHIR 99021. […] On Day 3 and Day 4, the cells were fed with DMEM/F12 with B27 (−Vitamin A)+Induction Cocktail+1 μM PD0325901.

CN[C@@H]1[C@@H](O)[C@@H](O[C@@H]2[C@@H](O)[C@H](O[C@H]3O[C@H]([C@@H](C)O)[C@@H](O)[C@H](O)[C@H]3N)[C@@H](N)C[C@H]2N)OC[C@]1(C)O [G418]
TH+ cells, final purity ([1]; without selection 55%): 63% | Map2+ cells, final purity ([1]; without selection 90%): 98% | FoxA2+ cells, final purity ([1]; without selection 93%): 96% | neurons (Map2+/Nestin-) in the cell population [2]: 95%

O=C(NOC[C@H](O)CO)c1ccc(F)c(F)c1Nc1ccc(I)cc1F [PD0325901]
midbrain specification (MAP2 Neo #2 iPS cells): induces faster and more efficient midbrain specification
